In patent US20040156869A1, “2-substituted quinazolin-4-ylamine analogues” (Neurogen Corporation, priority 2002, published 2004):
Where two headings read alike, the source gives them in different places.

Molecular target: human capsaicin receptor (VR1) (Homo sapiens, UniProt Q8NER1)
Assay: Capsaicin receptor binding assay ([3H]RTX competition, VR1-transfected HEK293 membranes)

Sequence of human capsaicin receptor (VR1) (Q8NER1 whole entry): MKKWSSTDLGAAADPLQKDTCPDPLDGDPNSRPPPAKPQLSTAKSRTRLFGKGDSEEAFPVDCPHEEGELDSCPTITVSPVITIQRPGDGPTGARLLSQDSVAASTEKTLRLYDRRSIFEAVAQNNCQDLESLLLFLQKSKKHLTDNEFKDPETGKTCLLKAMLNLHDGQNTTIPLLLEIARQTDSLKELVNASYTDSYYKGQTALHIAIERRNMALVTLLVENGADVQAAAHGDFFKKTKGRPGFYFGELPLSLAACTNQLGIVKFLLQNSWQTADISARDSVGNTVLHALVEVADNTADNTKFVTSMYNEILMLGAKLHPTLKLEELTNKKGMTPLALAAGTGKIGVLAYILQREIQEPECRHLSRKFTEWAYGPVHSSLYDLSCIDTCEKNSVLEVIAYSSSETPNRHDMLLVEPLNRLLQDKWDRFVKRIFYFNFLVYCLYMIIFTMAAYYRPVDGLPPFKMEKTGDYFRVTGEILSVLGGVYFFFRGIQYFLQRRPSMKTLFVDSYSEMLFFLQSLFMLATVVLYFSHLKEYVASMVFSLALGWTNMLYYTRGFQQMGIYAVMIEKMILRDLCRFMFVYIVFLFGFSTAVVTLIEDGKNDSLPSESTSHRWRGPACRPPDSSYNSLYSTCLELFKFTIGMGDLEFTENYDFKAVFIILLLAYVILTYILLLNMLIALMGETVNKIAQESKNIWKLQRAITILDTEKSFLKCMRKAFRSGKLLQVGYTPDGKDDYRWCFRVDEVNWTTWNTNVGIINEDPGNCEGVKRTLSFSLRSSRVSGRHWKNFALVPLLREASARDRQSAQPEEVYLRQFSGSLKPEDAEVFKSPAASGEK

Ki | Ki (Table III, capsaicin receptor binding) | SMILES
< 1000 nM |  | Cc1cccnc1-c1ccc2c(Nc3ccc(C(F)(F)F)cc3)nc(COC(C)C)nc2c1 [Compound 91, [2-Isopropoxymethyl-7-(3-methyl-pyridin-2-yl)-quinazolin-4-yl]-(4-trifluoromethyl-phenyl)-amine]
< 1000 nM |  | COCc1nc(Nc2ccc(S(=O)(=O)C(F)(F)F)cc2)c2ccc(-c3ncccc3C(F)(F)F)nc2n1 [Compound 113, [2-Methoxymethyl-7-(3-trifluoromethyl-pyridin-2-yl)-pyrido[2,3-d]pyrimidin-4-yl]-(4-trifluoromethanesulfonyl-phenyl)-amine]
< 1000 nM |  | CC(C)(C)c1ccc(Nc2nc(CN3CCCCC3)nc3cc(-c4ncccc4C(F)(F)F)ccc23)cc1 [Compound 476, (4-tert-Butyl-phenyl)-[2-piperidin-1-ylmethyl-7-(3-trifluoromethyl-pyridin-2-yl)-quinazolin-4-yl]-amine]
< 1000 nM |  | CCOCc1nc(Nc2ccc(C(C)C)cc2)c2ccc(-c3ncccc3Cl)cc2n1 [Compound 80, [7-(3-Chloro-pyridin-2-yl)-2-ethoxymethyl-quinazolin-4-yl]-(4-isopropyl-phenyl)-amine]
< 1000 nM |  | COCc1nc(Nc2ccc(C(C)(C)C)nc2)c2ccc(-c3ncccc3C(F)(F)F)nc2n1 [Compound 191, (6-tert-Butyl-pyridin-3-yl)-[2-methoxymethyl-7-(3-trifluoromethyl-pyridin-2-yl)-pyrido[2,3-d]pyrimidin-4-yl]-amine]
< 1000 nM |  | CC(C)S(=O)(=O)c1ccc(Nc2nc(CN3C[C@H](C)O[C@@H](C)C3)nc3cc(-c4ncccc4Cl)ccc23)cc1 [Compound 645, (S,S)-[7-(3-Chloro-pyridin-2-yl)-2-(2,6-dimethyl-morpholin-4-ylmethyl)-quinazolin-4-yl]-[4-(propane-2-sulfonyl)-phenyl]-amine]
< 1000 nM |  | CC1(C)CCCN(CCc2nc(Nc3ccc(C(F)(F)F)cc3)c3ccc(-c4ncccc4C(F)(F)F)cc3n2)C1 [Compound 404, [2-(3,3-Dimethyl-piperidin-1-ylethyl)-7-(3-trifluoromethyl-pyridin-2-yl)-quinazolin-4-yl]-(4-trifluoromethyl-phenyl)-amine]
< 1000 nM |  | O=C(c1nc(Nc2ccc(C(F)(F)F)cc2)c2ccc(-c3ncccc3C(F)(F)F)cc2n1)N1CCCCC1 [Compound 759, Piperidin-1-yl-[4-(4-trifluoromethyl-phenylamino)-7-(3-trifluoromethyl-pyridin-2-yl)-quinazolin-2-yl]I-methanone]
< 1000 nM |  | CCOC(=O)C1CCN(CCc2nc(Nc3ccc(C(F)(F)F)cc3)c3ccc(-c4ncccc4C(F)(F)F)cc3n2)CC1 [Compound 592, 1-{2-[4-(4-Trifluoromethyl-phenylamino)-7-(3-trifluoromethyl-pyridin-2-yl)-quinazolin-2-yl]-ethyl}-piperidine-4-carboxylic acid ethyl ester]
< 1000 nM |  | C[C@@H]1CN(Cc2nc(Nc3ccc(C(C)(C)C)cc3)c3ccc(-c4ncccc4C(F)(F)F)cc3n2)CCO1 [Compound 682, (R)-(4-tert-Butyl-phenyl)-[2-(2-methyl-morpholin-4-ylmethyl)-7-(3-trifluoromethyl-pyridin-2-yl)-quinazolin-4-yl]-amine]
< 1000 nM |  | CC1CCN(C(=O)c2nc(Nc3ccc(C(F)(F)F)cc3)c3ccc(-c4ncccc4C(F)(F)F)nc3n2)CC1 [Compound 462, (4-Methyl-piperidin-1-yl)-[4-(4-trifluoromethyl-phenylamino)-7-(3-trifluoromethyl-pyridin-2-yl)-pyrido[2,3-d]pyrimidin-2-yl]-methanone]
< 1000 nM |  | O=S(=O)(c1ccc(Nc2nc(COC3CCOCC3)nc3cc(-c4ncccc4C(F)(F)F)ccc23)cc1)N1CCOCC1 [Compound 141, [4-(Morpholine-4-sulfonyl)-phenyl]-[2-(tetrahydro-pyran-4-yloxymethyl)-7-(3-trifluoromethyl-pyridin-2-yl)-quinazolin-4-yl]-amine]
< 1000 nM |  | CC1CCN(Cc2nc(Nc3ccc(C(F)(F)F)nc3)c3ccc(-c4ncccc4C(F)(F)F)cc3n2)CC1 [Compound 360, [2-(4-Methyl-piperidin-1-ylmethyl)-7-(3-trifluoromethyl-pyridin-2-yl)-quinazolin-4-yl]-(6-trifluoromethyl-pyridin-3-yl)-amine]
 | < 1000 nM | CCCN(Cc1nc(Nc2ccc(C(F)(F)F)nc2)c2ccc(-c3ncccc3C(F)(F)F)cc2n1)CC1CC1 [Compound 558, [2-[(Cyclopropylmethyl-propyl-amino)-methyl]-7-(3-trifluoromethyl-pyridin-2-yl)-quinazolin-4-yl]-(6-trifluoromethyl-pyridin-3-yl)-amine]
< 1000 nM |  | O=C(NCCN1CCCCC1)c1nc(Nc2ccc(C(F)(F)F)cc2)c2ccc(-c3ncccc3C(F)(F)F)nc2n1 [Compound 439, 4-(4-Trifluoromethyl-phenylamino)-7-(3-trifluoromethyl-pyridin-2-yl)-pyrido[2,3-d]pyrimidine-2-carboxylic acid (2-piperidin-1-yl-ethyl)-amide]
< 1000 nM |  | CC(=O)OCc1nc(Nc2ccc(C(F)(F)F)nc2)c2ccc(-c3ncccc3C(F)(F)F)cc2n1 [Compound 21, Acetic acid 7-(3-trifluoromethyl-pyridin-2-yl)-4-(6-trifluoromethyl-pyridin-3-ylamino)-quinazolin-2-ylmethyl ester]
< 1000 nM |  | COCc1nc(Nc2ccc(C(C)(C)C)cc2)c2ccc(-c3ncccc3C(F)(F)F)nc2n1 [Compound 107, (4-tert-Butyl-phenyl)-[2-methoxymethyl-7-(3-trifluoromethyl-pyridin-2-yl)-pyrido[2,3-d]pyrimidin-4-yl]-amine]
< 1000 nM |  | FC(F)(F)c1ccc(Nc2nc(CN3CCCC3)nc3cc(-c4ncccc4C(F)(F)F)ccc23)cn1 [Compound 358, [2-Pyrrolidin-1-ylmethyl-7-(3-trifluoromethyl-pyridin-2-yl)-quinazolin-4-yl]-(6-trifluoromethyl-pyridin-3-yl)-amine]
< 1000 nM |  | C[C@@H]1CN(Cc2nc(Nc3ccc(Cl)cc3)c3ccc(-c4ncccc4C(F)(F)F)cc3n2)C[C@@H](C)O1 [Compound 654, (R,R)-(4-Chloro-phenyl)-[2-(2,6-dimethyl-morpholin-4-ylmethyl)-7-(3-trifluoromethyl-pyridin-2-yl)-quinazolin-4-yl]-amine]
< 1000 nM |  | CCN(CC)CC(C)(C)c1ccc(Nc2nc(COC)nc3nc(-c4ncccc4C)ccc23)cc1 [Compound 227, [4-(2-Diethylamino-1,1-dimethyl-ethyl)-phenyl]-[2-methoxymethyl-7-(3-methyl-pyridin-2-yl)-pyrido[2,3-d]pyrimidin-4-yl]-amine]
< 1000 nM |  | CCCN(CCC)Cc1nc(Nc2ccc(C(F)(F)F)cc2)c2ccc(-c3ncccc3C(F)(F)F)cc2n1 [Compound 550, [2-Dipropylaminomethyl-7-(3-trifluoromethyl-pyridin-2-yl)-quinazolin-4-yl]-(4-trifluoromethyl-phenyl)-amine]

SMILES | Ki | Ki (Table III, capsaicin receptor binding)
COc1ccc(Nc2nc(COCC(C)C)nc3nc(-c4ncccc4C(F)(F)F)ccc23)cc1F [Compound 258, (3-Fluoro-4-methoxy-phenyl)-[2-isobutoxymethyl-7-(3-trifluoromethyl-pyridin-2-yl)-pyrido[2,3-d]pyrimidin-4-yl]-amine] | < 1000 nM | 
